Measurements published in patent publication US8466113B2, “4-isopropylphenyl glucitol compounds as SGLT1 inhibitors” (Taisho Pharmaceutical Co., Ltd., priority 2009, dated 2013).

Experiments:
[1] = Kidney concentrations after repeated oral administration for 3 days; assay type: in vivo, rat; conditions: 3 mg/kg once a day for 3 days, male Sprague-Dawley rats, 48 hours after final administration
Experimental: (2) Kidney Concentrations of Inventive Compounds After Repeated Oral Administration for 3 Days
SD/IGS rats at 7 weeks of age (male, non-fasting, Charles River Laboratories Japan Inc.) were orally administered once a day for 3 consecutive days with compound 1-2, 5-2, 6-2, 13-2 or 15-2 according to the present invention (3 mg/kg) prepared in a 0.5% aqueous CMC solution. At 48 hours after the final drug administration, the rats were exsanguinated via the postcaval vein under isoflurane anesthesia, and their kidneys were excised after they were confirmed to be euthanized. After the tissue surface was washed with physiological saline, each tissue was measured for its weight and homogenized in 4 volumes of purified water under ice cooling. The drug concentration in each homogenate was determined in the same manner as shown in Test Example 3(1) by LC-MS/MS using compound 11 as an internal standard substance.

[2] = biological target: T1, human SGLT2 (Homo sapiens, UniProt P31639); experiment: Inhibition test for sodium-dependent sugar uptake in CHO-K1 cells stably expressing human SGLT2, Method B; assay type: cell-based; conditions: uptake 37° C., 60 minutes, read-out: IC50 for hSGLT2 Method B
T1 construct: expressed in transfected cells; host or cells: CHO-K1
T1 sequence (P31639 1-672): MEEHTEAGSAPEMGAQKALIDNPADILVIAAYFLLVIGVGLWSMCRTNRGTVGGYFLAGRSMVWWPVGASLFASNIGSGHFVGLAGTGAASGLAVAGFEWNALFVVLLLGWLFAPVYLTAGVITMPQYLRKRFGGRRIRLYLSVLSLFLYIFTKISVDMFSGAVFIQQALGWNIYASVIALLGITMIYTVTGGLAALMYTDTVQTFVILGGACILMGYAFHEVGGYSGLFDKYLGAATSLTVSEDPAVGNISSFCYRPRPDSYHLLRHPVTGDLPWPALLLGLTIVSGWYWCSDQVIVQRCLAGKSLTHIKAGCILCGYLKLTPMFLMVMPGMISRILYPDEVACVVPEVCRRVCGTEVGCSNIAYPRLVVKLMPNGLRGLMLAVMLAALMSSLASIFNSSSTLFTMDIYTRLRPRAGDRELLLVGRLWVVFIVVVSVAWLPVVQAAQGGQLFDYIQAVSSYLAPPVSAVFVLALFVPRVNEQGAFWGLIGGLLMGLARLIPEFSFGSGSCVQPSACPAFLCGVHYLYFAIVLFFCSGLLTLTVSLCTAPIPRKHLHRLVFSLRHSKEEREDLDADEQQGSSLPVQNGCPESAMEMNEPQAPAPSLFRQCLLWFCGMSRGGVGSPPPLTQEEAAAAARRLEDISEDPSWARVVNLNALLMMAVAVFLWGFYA
Experimental: (2) Creation of CHO-K1 Cells Stably Expressing Human SGLT2
Method B: A plasmid vector expressing human SGLT2 protein was transfected into CHO-K1 cells using lipofectamine LTX (Invitrogen). The cells were cultured in the presence of 1000 μg/mL geneticin to select resistant strains, followed by screening in the system shown below using sugar uptake capacity as an indicator to obtain SGLT2-expressing cells.
(3) Inhibition Test for Sodium-Dependent Sugar Uptake in Stably Expressing Cells
The stably expressing cells prepared above were used in the following test.
Pretreatment buffer (140 mM choline chloride, 2 mM KCl, 1 mM CaCl2, 1 mM MgCl2, 10 mM HEPES/5 mM Tris, pH 7.4) was added in a volume of 200 μL to the cells stably expressing SGLT1 or 2 mL for Method A and 200 μL for Method B to the cells stably expressing SGLT2, followed by incubation for 20 minutes. The pretreatment buffer was removed and replaced by uptake buffer containing a test compound (1 mM methyl α-D-glucopyranoside (containing [^14C]methyl α-D-glucopyranoside), 140 mM NaCl, 2 mM KCl, 1 mM CaCl2, 1 mM MgCl2, 10 mM HEPES/5 mM Tris, pH 7.4) in a volume of 75 μL for SGLT1 and SGLT2 in Method B or 200 μL for SGLT2 in Method A. Uptake reaction was performed at 37° C. for 30 minutes (SGLT1) or 60 minutes (SGLT2). After the reaction, the cells were washed twice with washing buffer (10 mM methyl α-D-glucopyranoside, 140 mM choline chloride, 2 mM KCl, 1 mM CaCl2, 1 mM MgCl2, 10 mM HEPES/5 mM Tris, pH 7.4) in a volume of 200 μL for SGLT1 and SGLT2 in Method B or 2 mL for SGLT2 in Method A, and then dissolved in a 0.25 M NaOH solution (75 μL for SGLT1 and SGLT2 in Method B or 400 μL for SGLT2 in Method A). A liquid scintillator (Perkin Elmer) was added and mixed well with each sample, followed by measurement of radioactivity using a β-ray analyzer. For the control group, uptake buffer containing no test compound was prepared. Moreover, another uptake buffer containing choline chloride instead of NaCl was also prepared for basal uptake.
For determination of IC50 values, test compounds prepared at 6 appropriate concentrations were used and their concentrations required for 50% inhibition of the amount of sugar uptake (IC50 values) were calculated relative to the amount of sugar uptake in the control group (100%).

Row | IC50 [2] | SMILES | Concentration of compounds in kidney after 3 days continuous oral administration, After 2 days [1]
1 | 322 nM | COc1cc(C(C)C)c(Cc2ccc(/C=C/C(C)(C)C(=O)NC(C)(C)C(=O)NCC(C)(C)N)cc2C)cc1[C@@H]1O[C@H](CO)[C@@H](O)[C@H](O)[C@H]1O [Example 13-2] | BLQ (BLQ means below lower limit of quantification(5 ng/g))
2 | 64 nM | Cc1cc(/C=C/C(C)(C)C(=O)NC(C)(C)C(=O)NCC(C)(C)N)ccc1Cc1cc([C@@H]2O[C@H](CO)[C@@H](O)[C@H](O)[C@H]2O)c(O)cc1C(C)C [Example 6-2] | BLQ (BLQ means below lower limit of quantification(5 ng/g))
3 | 20 nM | COc1cc(C(C)C)c(Cc2ccc(/C=C/C(C)(C)C(=O)NC(C)(C)C(=O)NCCN(C)C)cc2)cc1[C@@H]1O[C@H](CO)[C@@H](O)[C@H](O)[C@H]1O [Example 15-2] | BLQ (BLQ means below lower limit of quantification(5 ng/g))
4 | 74 nM | Cc1cc(/C=C/C(C)(C)C(=O)NC(C)(C)C(=O)NCCN(C)C)ccc1Cc1cc([C@@H]2O[C@H](CO)[C@@H](O)[C@H](O)[C@H]2O)c(O)cc1C(C)C [Example 1-2] | BLQ^# (BLQ means below lower limit of quantification(5 ng/g))
5 | 30 nM | Cc1cc(/C=C/C(C)(C)C(=O)NC(C)(C)C(=O)N2CCC(N(C)C)CC2)ccc1Cc1cc([C@@H]2O[C@H](CO)[C@@H](O)[C@H](O)[C@H]2O)c(O)cc1C(C)C [Example 5-2] | BLQ (BLQ means below lower limit of quantification(5 ng/g))
